The results in this text go back to patent US9540391B2, “Isomannide derivatives as inhibitors of soluble epoxide hydrolase” (SANOFI, priority 2013, dated 2017).

Where a name gives a salt, the structure may show the parent alone.

As a reminder, the IC50 is the concentration that inhibits the measured activity by half.

The target in the assay is T1, recombinant sEH (Homo sapiens, UniProt P34913).
T1 construct: made in house; host or cells: Sf9 insect cells
T1 sequence (P34913 1-555): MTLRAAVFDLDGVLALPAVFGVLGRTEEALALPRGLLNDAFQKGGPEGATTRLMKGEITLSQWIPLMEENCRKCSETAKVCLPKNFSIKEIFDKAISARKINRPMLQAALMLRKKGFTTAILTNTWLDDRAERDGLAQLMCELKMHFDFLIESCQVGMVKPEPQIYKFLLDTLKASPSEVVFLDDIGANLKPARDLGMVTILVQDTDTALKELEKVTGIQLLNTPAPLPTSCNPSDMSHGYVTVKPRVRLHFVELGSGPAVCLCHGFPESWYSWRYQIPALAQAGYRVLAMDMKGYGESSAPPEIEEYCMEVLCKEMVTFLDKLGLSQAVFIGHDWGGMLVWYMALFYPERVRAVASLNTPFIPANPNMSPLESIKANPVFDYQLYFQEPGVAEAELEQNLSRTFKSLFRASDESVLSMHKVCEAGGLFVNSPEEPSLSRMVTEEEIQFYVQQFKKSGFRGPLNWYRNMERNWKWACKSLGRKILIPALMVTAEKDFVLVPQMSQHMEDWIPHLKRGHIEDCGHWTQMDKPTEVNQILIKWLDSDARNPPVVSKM
In words: biochemical screening assay for inhibition of soluble epoxide hydrolase (fluorometric, Phome substrate). The procedure:
The ability of the compounds of the formula I to inhibit soluble epoxide hydrolase can be determined as follows:
Compounds were tested in a biochemical screening assay using recombinant sEH purified from Sf9 insect cells and an artificial substrate, (3-phenyl-oxiranyl)-acetic acid cyano-(6-methoxy-naphtalen-2-yl)-methyl ester, Phome. The biochemical assay was performed in analogy to a fluorometric method described in the literature (P. D. Jones et al., Anal. Biochem. 2005, 343, 66-75). The assay principle bases on the sEH-catalyzed hydrolysis of an artificial α-cyano-ester substrate. 0-deacetylation liberates a cyanohydrin intermediate that rapidly decomposes to the highly fluorescent 6-methoxy-2-naphtaldehyde. To discriminate sample autofluorescence, the assay was carried out as a kinetic measurement with two time points. The first measurement is performed immediately before addition of the substrate and the second measurement is done after completion of the assay. The assay format is either in 96- or in 384-well format. Details of the assay using a 96-well plate format are described below. 40 μL recombinant sEH enzyme and 5 μL test compound are pre-incubated for 15 minutes at 30° C. Following pre-incubation, the reaction is started by addition of 5 μL Phome. The assay mixture containing 2 nM final sEH concentration, test compound ranging in a concentration from 0.0001-10 μM and 5 μM Phome is incubated for 60 minutes at 30° C.
Fluorescence can be measured with any suitable detector for instance a TECAN Safire or Tecan Ultra at […]. % inhibition of recombinant sEH activity is used for calculation of corresponding IC50 values as illustrated and described in the examples.
The NCBI gene bank reference sequence with the accession number NM_001979 for EPHX2/sEH was applied for recombinant protein production:
The following commercially available materials have been used: • Incubation reagent: 25 mM Hepes (Sigma-Aldrich, Cat. No H-3375), 0.01% bovine albumin (Sigma-Aldrich Cat. No PA9205) • Substrate: 3-Phenyl-oxiranyl)-acetic acid cyano-(6-methoxy-naphtalen-2-yl)-methyl ester, Phome (Biozol Cat. No 10003134) • Microtiter plates: 96-well plates (Greiner Cat. No 655180; Costar Cat. No 3915)

Regarding `O=C(NC1CCCCC1)N[C@H]1CO[C@H]2[C@@H]1OC[C@H]2O` [Example 1, 1-cyclohexyl-3-((3S,3aR,6R,6aR)-6-hydroxy-hexahydro-furo[3,2-b]furan-3-yl)-urea], the IC50 stood at 305 nM.
In the case of `Cc1ccc(S(=O)(=O)O[C@@H]2CO[C@H]3[C@@H]2OC[C@@H]3NC(=O)NC2CCCCC2)cc1` [Example 2, toluene-4-sulfonic acid (3R,3aS,6S,6aR)-6-(3-cyclohexyl-ureido)-hexahydro-furo[3,2-b]furan-3-yl ester] it was 19 nM; in that of `O=C(NC1CCCCC1)N[C@H]1CO[C@H]2[C@@H]1OC[C@@H]2Oc1ccccn1` [Example 3, 1-cyclohexyl-3-[(3S,3aR,6S,6aS)-6-(pyridin-2-yloxy)-hexahydro-furo[3,2-b]furan-3-yl]-urea], 12 nM.
In the case of `O=C(NC1CCCCC1)N[C@H]1CO[C@H]2[C@@H]1OC[C@@H]2OC(=O)N1CCOCC1` [Example 4, morpholine-4-carboxylic acid (3S,3aS,6S,6aR)-6-(3-cyclohexyl-ureido)-hexahydro-furo[3,2-b]furan-3-yl ester] it was 16 nM.
Take `O=C(NC1CCCCC1)N[C@H]1CO[C@H]2[C@@H]1OC[C@@H]2Oc1c[nH]c2ccccc12` [Example 5, 1-cyclohexyl-3-[(3S,3aR,6S,6aS)-6-(1H-indol-3-yloxy)-hexahydro-furo[3,2-b]furan-3-yl]-urea]: the IC50 amounted to 3 nM.
Regarding `O=C(NC1CCCCC1)N(Cc1ccccc1)[C@H]1CO[C@@H]2[C@@H](CO)CO[C@@H]21` [Example 6, 1-benzyl-3-cyclohexyl-1-((3S,3aR,6S,6aR)-6-hydroxymethyl-hexahydro-furo[3,2-b]furan-3-yl)-urea], the half-maximal inhibitory concentration (IC50) is 8000 nM.
In the case of `NC[C@H]1CO[C@H]2[C@@H]1OC[C@@H]2N(Cc1ccccc1)C(=O)NC1CCCCC1` [Example 7, 1-((3S,3aR,6S,6aR)-6-aminomethyl-hexahydro-furo[3,2-b]furan-3-yl)-1-benzyl-3-cyclohexyl-urea; trifluoroacetate] it was 258 nM; in that of `NC[C@H]1CO[C@H]2[C@@H]1OC[C@@H]2NC(=O)NC1CCCCC1` [Example 8, 1-((3S,3aR,6S,6aR)-6-aminomethyl-hexahydro-furo[3,2-b]furan-3-yl)-3-cyclohexyl-urea; trifluoroacetate], 14500 nM.
In the case of `CN(C)C[C@H]1CO[C@H]2[C@@H]1OC[C@@H]2NC(=O)NC1CCCCC1` [Example 9, 1-cyclohexyl-3-((3S,3aR,6S,6aR)-6-dimethylaminomethyl-hexahydro-furo[3,2-b]furan-3-yl)-urea; trifluoroacetate] it was 450 nM.
Next, `COC(=O)c1ccc(O[C@H]2CO[C@H]3[C@@H]2OC[C@@H]3NC(=O)NC2CCCCC2)cc1` [Example 10, 4-[(3S,3aS,6S,6aR)-6-(3-cyclohexyl-ureido)-hexahydro-furo[3,2-b]furan-3-yloxy]-benzoic acid methyl ester]: 3 nM; `O=C(NC1CCCCC1)N[C@H]1CO[C@H]2[C@@H]1OC[C@@H]2Oc1ccc(C(=O)O)cc1` [Example 11, 4-[(3S,3aS,6S,6aR)-6-(3-cyclohexyl-ureido)-hexahydro-furo[3,2-b]furan-3-yloxy]-benzoic acid]: 5 nM.
In the case of `O=C(NC1CCCCC1)N[C@H]1CO[C@H]2[C@@H]1OC[C@@H]2SC1CCCCC1` [Example 12, 1-cyclohexyl-3-((3S,3aR,6S,6aS)-6-cyclohexylsulfanyl-hexahydro-furo[3,2-b]furan-3-yl)-urea], the IC50 is 1 nM.
In the case of `O=C(NC1CCCCC1)N[C@H]1CO[C@H]2[C@@H]1OC[C@@H]2Nc1nccs1` [Example 13, 1-Cyclohexyl-3-[(3S,3aR,6S,6aR)-6-(thiazol-2-ylamino)-hexahydro-furo[3,2-b]furan-3-yl]-urea], the IC50 is 167 nM.
In the case of `O=C(NC1CCCCC1)N[C@H]1CO[C@H]2[C@@H]1OC[C@@H]2SCCO` [Example 14, 1-Cyclohexyl-3-[(3S,3aR,6S,6aS)-6-(2-hydroxy-ethylsulfanyl)-hexahydro-furo[3,2-b]furan-3-yl]-urea] it was 19 nM; in that of `O=C(NC1CCCCC1)N[C@H]1CO[C@H]2[C@@H]1OC[C@@H]2Sc1ccc(F)cc1` [Example 15, 1-Cyclohexyl-3-[(3S,3aR,6S,6aS)-6-(4-fluoro-phenylsulfanyl)-hexahydro-furo[3,2-b]furan-3-yl]-urea], under 1 nM.
In the case of `CC(=O)NCCS[C@H]1CO[C@H]2[C@@H]1OC[C@@H]2NC(=O)NC1CCCCC1` [Example 16, N-{2-[(3S,3aS,6S,6aR)-6-(3-Cyclohexyl-ureido)-hexahydro-furo[3,2-b]furan-3-ylsulfanyl]-ethyl}-acetamide] it was 8 nM; in that of `CC(C)S[C@H]1CO[C@H]2[C@@H]1OC[C@@H]2NC(=O)NC1CCCCC1` [Example 17, 1-Cyclohexyl-3-((3S,3aR,6S,6aS)-6-isopropylsulfanyl-hexahydro-furo[3,2-b]furan-3-yl)-urea], 1 nM; in that of `COc1ccc(O[C@H]2CO[C@H]3[C@@H]2OC[C@@H]3NC(=O)NC2CCCCC2)cc1` [Example 18, 1-Cyclohexyl-3-[(3S,3aR,6S,6aS)-6-(4-methoxy-phenoxy)-hexahydro-furo[3,2-b]furan-3-yl]-urea], 1 nM.
In the case of `O=C(NC1CCCCC1)N[C@H]1CO[C@H]2[C@@H]1OC[C@@H]2OCC(F)(F)F` [Example 19, 1-Cyclohexyl-3-[(3S,3aR,6S,6aS)-6-(2,2,2-trifluoro-ethoxy)-hexahydro-furo[3,2-b]furan-3-yl]-urea] it was 9 nM; in that of `Cc1nc(-c2ccccc2O[C@H]2CO[C@H]3[C@@H]2OC[C@@H]3NC(=O)NC2CCCCC2)cs1` [Example 20, 1-Cyclohexyl-3-{(3S,3aR,6S,6aS)-6-[2-(2-methyl-thiazol-4-yl)-phenoxy]-hexahydro-furo[3,2-b]furan-3-yl}-urea], 2 nM; in that of `CC(C)(C)S[C@H]1CO[C@H]2[C@@H]1OC[C@@H]2NC(=O)NC1CCCCC1` [Example 21, 1-((3S,3aR,6S,6aS)-6-tert-Butylsulfanyl-hexahydro-furo[3,2-b]furan-3-yl)-3-cyclohexyl-urea], 1 nM.
For `CC(C)(CCO)S[C@H]1CO[C@H]2[C@@H]1OC[C@@H]2NC(=O)NC1CCCCC1` [Example 22, 1-Cyclohexyl-3-[(3S,3aR,6S,6aS)-6-(3-hydroxy-1,1-dimethyl-propylsulfanyl)-hexahydro-furo[3,2-b]furan-3-yl]-urea], the IC50 was 3 nM.
`O=C(NC1CCCCC1)N[C@H]1CO[C@H]2[C@@H]1OC[C@@H]2Oc1ccccc1-c1ccccc1` [Example 23, 1-[(3S,3aR,6S,6aS)-6-(Biphenyl-2-yloxy)-hexahydro-furo[3,2-b]furan-3-yl]-3-cyclohexyl-urea]: the IC50 came to 1 nM.
In the case of `O=C(NC1CCCCC1)N[C@H]1CO[C@H]2[C@@H]1OC[C@@H]2Oc1ccc(F)cc1` [Example 24, 1-Cyclohexyl-3-[(3S,3aR,6S,6aS)-6-(4-fluoro-phenoxy)-hexahydro-furo[3,2-b]furan-3-yl]-urea] it was 4 nM; in that of `O=C(NC1CCCCC1)N[C@H]1CO[C@H]2[C@@H]1OC[C@@H]2SC1CCS(=O)(=O)C1` (stereo partly drawn) [Example 25, 1-Cyclohexyl-3-[(3S,3aR,6S,6aS)-6-(1,1-dioxo-tetrahydro-1λ6-thiophen-3-ylsulfanyl)-hexahydro-furo[3,2-b]furan-3-yl]-urea], 8 nM; in that of `O=C(NC1CCCCC1)N[C@H]1CO[C@H]2[C@@H]1OC[C@@H]2Oc1ccccc1-c1nnn[nH]1` [Example 26, 1-Cyclohexyl-3-{(3S,3aR,6S,6aS)-6-[2-(1H-tetrazol-5-yl)-phenoxy]-hexahydro-furo[3,2-b]furan-3-yl}-urea], 454 nM.
Consider `O=C(NC1CCCCC1)N[C@H]1CO[C@H]2[C@@H]1OC[C@@H]2Oc1cccc(Oc2ccccc2)c1` [Example 27, 1-Cyclohexyl-3-[(3S,3aR,6S,6aS)-6-(3-phenoxy-phenoxy)-hexahydro-furo[3,2-b]furan-3-yl]-urea], for which the IC50 is 3 nM.
